# Like-named read-outs stand apart in the source and are kept apart here.
# Assays:
# [1] = MTT assay, cell viability rate of 3T3-L1 mature adipocytes; format: cell-based; conditions: mouse
# Method: (§1) 3T3-L1 cell subculture medium (preadipocytes): DMEM+10% BCS+1% P/S.
# (§2) 3T3-L1 cell induction differentiation medium (mature adipocytes): DMI Medium: DMEM+10% FBS+1% P/S+0.5 μM IBMX+0.1 μM dexamethasone+5 μg/mL insulin; and INS Medium: DMEM+10% FBS+1% P/S+5 μg/mL insulin. IBMX stock solution was prepared as follows: 500 mM solution in DMSO diluted and used to prepare the differentiation medium. Dexamethasone stock solution was preprepared as follows: 10 mM solution in EtOH diluted and used to prepare the differentiation medium. Insulin stock solution was prepared as follows: 10 mg/mL solution in double distilled water (ddw) diluted and used to prepare the differentiation medium.
# (§3) Steps to induce differentiation: The adipocyte precursors 3T3-L1 cells (purchased from the Food Industry Research and Development Institute, Taiwan; abbreviated as BCRC) were seeded in 12-well plates, such that each well contained 1×10^5 cells.
# (§4) MTT assay: After 3T3-L1 cells were induced to differentiate into mature adipocytes for 8 days, Resveratrol or Oxyresveratrol was added for treatment for 24 hours, then the culture medium was replaced with MTT reagent (working concentration: 0.5 mg/mL), and cultured in a 37° C. incubator for 2 hours. After removing the supernatant, DMSO was added to dissolve the purple crystals, and an ELISA reader was used to measure the OD 570 nm absorbance value and OD 630 nm background absorbance value. The background value OD 630 nm was subtracted from the measured value OD 570 nm in each group to obtain the final absorbance value.
# (§5) Calculation formula (cell viability rate): After measuring the absorbance value at 570 nm and subtracting the background absorbance at 630 nm, the final absorbance value was multiplied by the […] and divided by the average absorbance value of the Control group for calculation.
# (§6) 3T3-L1 preadipocytes and mature adipocytes were cultured using the same cell subculture medium disclosed in Example 1 above. Adipocytes differentiation, MTT assay, and determination cell viability was conducted following the methods disclosed herein. See, e.g. Example 1 above.
# 3T3-L1 mature adipocytes = experiment: as above; format: cell-based; conditions: 24 hours; for Cell viability compared with DMSO Vehicle group / Effect on adipocytes compared with resveratrol at the same concentration: p<0.001; for Cell viability rate compared with 0.2% DMSO Vehicle group: 20 ppm, 40 ppm and 60 ppm, p<0.001, dose effect; for Effect on adipocytes compared with resveratrol at the same concentration: 40 ppm
# Method: as §1, §2, §3, §4, §5, §6
# [2] = Cell viability rate, Replicate 1
# [3] = Cell viability rate, Replicate 2
# [4] = Cell viability rate, Replicate 3
# [5] = Cell viability rate, Replicate 4
Structure (SMILES),Cell viability compared with DMSO Vehicle group (3T3-L1 mature adipocytes; 50 ppm),"viability at 24 h, 50 ppm ([1]; Cell viability rate, Mean)","viability at 24 h, 50 ppm [1, 2]","viability at 24 h, 50 ppm [1, 3]","viability at 24 h, 50 ppm [1, 4]","viability at 24 h, 50 ppm [1, 5]",Cell viability rate compared with 0.2% DMSO Vehicle group (3T3-L1 mature adipocytes),also measured
"COc1ccc(/C=C/c2cc(O)cc(O)c2)cc1O [IM05, 5-[(E)-2-(3-hydroxy-4-methoxyphenyl)ethenyl]benzene-1,3-diol]",significantly decreased,–,–,–,–,–,–,"viability at 24 h, 50 ppm ([1]; 3T3-L1 mature adipocytes (differentiated from preadipocytes), 3T3-L1 mature adipocytes, drug 50 ppm, 0.2% DMSO, 24 hours, mean of 4 replicates, read-out: Cell viability rate, Mean): 72.4%; viability at 24 h, 50 ppm ([1]; 3T3-L1 mature adipocytes (differentiated from preadipocytes), 3T3-L1 mature adipocytes, drug 50 ppm, 0.2% DMSO, 24 hours, read-out: Cell viability rate, Replicate 1): 66.5%; viability at 24 h, 50 ppm ([1]; 3T3-L1 mature adipocytes (differentiated from preadipocytes), 3T3-L1 mature adipocytes, drug 50 ppm, 0.2% DMSO, 24 hours, read-out: Cell viability rate, Replicate 2): 71.2%; viability at 24 h, 50 ppm ([1]; 3T3-L1 mature adipocytes (differentiated from preadipocytes), 3T3-L1 mature adipocytes, drug 50 ppm, 0.2% DMSO, 24 hours, read-out: Cell viability rate, Replicate 3): 73.5%; viability at 24 h, 50 ppm ([1]; 3T3-L1 mature adipocytes (differentiated from preadipocytes), 3T3-L1 mature adipocytes, drug 50 ppm, 0.2% DMSO, 24 hours, read-out: Cell viability rate, Replicate 4): 78.4%"
"Oc1cc(O)cc(/C=C/c2ccc(O)cc2O)c1 [Oxyresveratrol, 4-[(E)-2-(3,5-dihydroxyphenyl)ethenyl]benzene-1,3-diol]",significantly decreased,39.6%,43.2%,38%,37%,40%,significantly lower than 0.2% DMSO Vehicle group,"viability at 24 h, 20 ppm ([1]; Average viability (%)): 76.8 ± 3.27%; viability at 24 h, 40 ppm ([1]; Average viability (%)): 28.65 ± 0.26%; viability at 24 h, 60 ppm ([1]; Average viability (%)): 12.5 ± 1.09%; Effect on adipocytes compared with resveratrol at the same concentration (3T3-L1 mature adipocytes; listed as OxyR): more effective in reducing adipocytes than Res; Effect on adipocytes compared with resveratrol at the same concentration (3T3-L1 mature adipocytes; listed as oxyresveratrol): better inhibitory effects against adipocytes as compared with resveratrol; Effect on adipocytes survival compared with derivatives TriacetylR and IM05 (3T3-L1 mature adipocytes; 50 ppm): more effective in reducing adipocytes survival than its derivatives; Cell viability rate compared with resveratrol at the same concentration (3T3-L1 mature adipocytes; 60 ppm): no significant difference in cell viability rate"
Oc1ccc(C=Cc2cc(O)cc(O)c2)cc1 [Resveratrol],–,–,–,–,–,–,significantly lower than 0.2% DMSO Vehicle group,"viability at 24 h, 20 ppm ([1]; 3T3-L1 mature adipocytes (differentiated from preadipocytes), 3T3-L1 mature adipocytes, drug 20 ppm, 0.2% DMSO, 24 hours, relative to Control, mean ± spread of 3 replicates, read-out: Average viability (%)): 69.6 ± 1.36%; viability at 24 h, 40 ppm ([1]; 3T3-L1 mature adipocytes (differentiated from preadipocytes), 3T3-L1 mature adipocytes, drug 40 ppm, 0.2% DMSO, 24 hours, relative to Control, mean ± spread of 3 replicates, read-out: Average viability (%)): 43.4 ± 1.47%; viability at 24 h, 60 ppm ([1]; 3T3-L1 mature adipocytes (differentiated from preadipocytes), 3T3-L1 mature adipocytes, drug 60 ppm, 0.2% DMSO, 24 hours, relative to Control, mean ± spread of 3 replicates, read-out: Average viability (%)): 14.1 ± 0.6%"
"CC(=O)Oc1ccc(/C=C/c2cc(OC(C)=O)cc(OC(C)=O)c2)cc1 [TriacetyIR, [4-[(E)-2-(3,5-diacetyloxyphenyl)ethenyl]phenyl] acetate]",significantly decreased,68.9%,73.2%,64%,67.2%,71.2%,–,–
